Experimental findings from PubChem BioAssay AID720588 (Broad Institute, 2013) are described below.

Each structure is given as a SMILES string. Active and inactive are the calls of the source.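 The calls were made as follows: active = fitted curve falls past a set limit of signal loss at no more than twice the top dose; inconclusive = flat fit between 30 and 70% signal loss, or poor fit; inactive = signal rise, flat within 30%, or crossing too high.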

The nature of the test: ATP-based viability loss in HEK293T cells – cell-based, CellTiter-Glo luminescence, cherry-pick, set 3, cytotoxicity control, dose response (AID 720588). Particulars: HEK293T viability, CellTiter-Glo ATP luminescence, 72 h; at 26 µM (top of the series). (Cellular ATP, detected with luciferase, serves as a proxy for viable cell number.)
For the compound `CCCCNC(=O)C(c1ccc(OCC(=O)OC)c(C(=O)OC)c1)N(CCOC)C(=O)CCCCCN1C(=O)NC(c2ccc(-c3ccccc3)cc2)C(C(=O)OCc2ccccc2)=C1C` (stereo unspecified), the activity change, negative = cytotoxicity is 2.6% (inactive).

As to `Cc1ccc(/C=C2\SC(=S)N(CCC(=O)NNC(=O)c3ccccc3O)C2=O)cc1`, the activity change, negative = cytotoxicity was 24.1% (inactive).

Take `CC(C)(C)c1ccc(Oc2ccc(NC(=O)C3CC=CCC3C(=O)O)cc2)cc1` (stereo unspecified): the activity change, negative = cytotoxicity was -16.1% (inactive).

For `COc1ccc(C2=Nn3c(nnc3-c3ccccc3F)SC2)cc1OC1CCOC1` (stereo unspecified), the activity change, negative = cytotoxicity was -7.39% (inactive).

On to `C[C@@H]1CN([C@@H](C)CO)C(=O)Cc2cc(NC(=O)C3CCCCC3)ccc2O[C@H]1CN(C)Cc1ccc(C(=O)Nc2ccccc2N)cc1`, for which the activity change, negative = cytotoxicity was 7.97% (inactive).

`COC(=O)Cc1ccc(NC(=O)c2ccccc2Cl)cc1`: the activity change, negative = cytotoxicity was -2.38% (inactive).

For the compound `COc1ccc(NC(=O)N2CCCCN3[C@H](CO)[C@H](c4ccc(C#CCC(C)C)cc4)[C@H]3C2)cc1`, the activity change, negative = cytotoxicity is -56.2% (inactive).

Turning to `Cc1ccc2c(c1)C(=O)N1[C@H]3c4cc(Br)ccc4OC[C@@H]3[C@H](c3ccccc3)[C@]1(C)C(=O)N2`, the activity change, negative = cytotoxicity was -13.8% (inactive).

`COc1cc(/C=N/NS(=O)(=O)c2ccc(C)cc2)ccc1OCc1cccc(C(=O)O)c1`: the activity change, negative = cytotoxicity was 5.87% (inactive).

`N#CC1C=Cc2c(ccc3ccccc23)N1C(=O)c1ccccc1` (stereo unspecified): the activity change, negative = cytotoxicity was -20.1% (inactive).

Turning to `COc1ccc2cc(C(N)=O)/c(=N\NC(=O)c3ccccc3)oc2c1`, the activity change, negative = cytotoxicity is -13.7% (inactive).

As for `CN(C)c1ccc(-c2ccnc3c2CC(C)(C(=O)NCc2ccco2)O3)cc1` (stereo unspecified), the activity change, negative = cytotoxicity was -32.8% (inactive).

`CCOC(=O)c1c(-c2ccc(C)cc2)csc1NC(=O)CCN1CCOCC1`: the activity change, negative = cytotoxicity is 5.98% (inactive).

For `Cc1c(CCOC(=O)CC23CC4CC(CC(C)(C4)C2)C3)sc[n+]1CC(=O)c1ccccc1`, the activity change, negative = cytotoxicity was 12.1% (inactive).

For `CC(C)CN(C(=O)CN1CCOCC1)c1c(N)n(CC(C)C)c(=O)[nH]c1=O`, the activity change, negative = cytotoxicity is 6.36% (inactive).

For `COc1ccc(-c2nc3c(s2)CCc2onc(-c4ccc(OC)cc4)c2-3)cc1`, the activity change, negative = cytotoxicity is -17.8% (inactive).

With `COc1cc(C(=O)N2CCC(N3CCN(C)CC3)CC2)ccc1Nc1ncc2c(n1)N(C)c1ccccc1C(=O)N2C`, the activity change, negative = cytotoxicity is -1.13% (inactive).

On to `COC(=O)C[C@@H]1CC[C@@H]2[C@H](COc3ccc(NC(=O)c4ccc(F)cc4)cc3C(=O)N2C)O1`, for which the activity change, negative = cytotoxicity was 76.4% (inactive).

As for `c1cncc(-c2ccc([C@@H]3[C@H]4CNC[C@@H]3N4CC3CCOCC3)cc2)c1`, the activity change, negative = cytotoxicity is 61.9% (inactive).

`Cc1c(-c2nc(-c3ccc(C(C)(C)C)cc3)no2)n(C)oc1=O`: the activity change, negative = cytotoxicity is -15.2% (inactive).

Regarding `O=C(O)c1cccc(N/N=C/c2ccc(OC(F)(F)F)cc2)c1`, the activity change, negative = cytotoxicity is 11.3% (inactive).

With `CCOC(=O)Cc1ccc(NC(=O)c2ccccc2Br)cc1`, the activity change, negative = cytotoxicity is -14.3% (inactive).

Turning to `CCc1c(C(=O)NN2C(=O)C3CCCCC3C2=O)csc1C` (stereo unspecified), the activity change, negative = cytotoxicity was -15.1% (inactive).

Turning to `C=CCn1c(O)c(N=Nc2ccccc2)c2ccccc21`, the activity change, negative = cytotoxicity was 11.3% (inactive).

Take `COC(=O)[C@H]1[C@H](CO)[C@H]2Cn3c(ccc(-c4ccccc4F)c3=O)[C@@H]1N2CC1CCCC1`: the activity change, negative = cytotoxicity was 56.8% (inactive).

For the compound `C[C@@H]1CN([C@@H](C)CO)C(=O)Cc2cc(NC(=O)Cn3cnnn3)ccc2O[C@@H]1CN(C)Cc1ccc(Oc2ccccc2)cc1`, the activity change, negative = cytotoxicity is 14.3% (inactive).

For `O=C(Nc1ccc(OC(=O)N2CCCCC2)cc1)N1CCOCC1`, the activity change, negative = cytotoxicity was -2.87% (inactive).

With `COc1ccc(C2c3cc4c(cc3OC(NNC(N)=O)C2C)OCO4)cc1` (stereo unspecified), the activity change, negative = cytotoxicity was -16.2% (inactive).

For `COC(=O)C[C@H]1CC[C@H]2[C@@H](COc3ccc(NC(=O)Nc4cccc(Cl)c4)cc3C(=O)N2C)O1`, the activity change, negative = cytotoxicity was -24.3% (inactive).

Consider `COC(=O)c1c(C)[nH]c(/C=N/Nc2ccccc2)c1C`, for which the activity change, negative = cytotoxicity is -4.63% (inactive).

For the compound `CN(c1ccc(NC(=O)CCc2c[nH]c3ccccc23)cc1)c1ccccn1`, the activity change, negative = cytotoxicity was -4.8% (inactive).

As for `COc1ccc(-c2sc3ccccc3c2-c2ccc(OCCN3CCCCC3)cc2)cc1`, the activity change, negative = cytotoxicity was -16% (inactive).

With `N#Cc1cccc(-c2ccc(C3[C@@H]4CN(C(=O)Cc5ccncc5)C[C@H]3N4)cc2)c1` (stereo partly specified), the activity change, negative = cytotoxicity is 35.3% (inactive).

`N=c1ccn2c(n1)O[C@H]1[C@H](O)[C@@H](CO)O[C@H]12`: the activity change, negative = cytotoxicity was -7.04% (inactive).

Turning to `C[C@@H]1CN([C@@H](C)CO)C(=O)c2cccc(NC(=O)Nc3ccccc3)c2O[C@@H]1CN(C)Cc1ccc(-c2ccccc2)cc1`, the activity change, negative = cytotoxicity was -22.7% (inactive).

As for `CCCc1nc2ccc(NC(=O)c3cccs3)cc2c(=O)n1Cc1ccccc1Cl`, the activity change, negative = cytotoxicity is -2.41% (inactive).

As for `O=C(CCCCl)Nc1nc(-c2ccc3c(c2)OCCO3)cs1`, the activity change, negative = cytotoxicity is 13.6% (inactive).

In the case of `CC(C)CC(NC(=O)c1cccs1)c1nnc(SCc2ccc(Cl)c(Cl)c2)n1C` (stereo unspecified), the activity change, negative = cytotoxicity is -6.67% (inactive).

For `O=C(N/N=C/c1cccs1)c1n[nH]c2c1CCCC2`, the activity change, negative = cytotoxicity was -10.2% (inactive).

Turning to `CCCN(C)C[C@H]1Oc2ncc(-c3ccccc3)cc2C(=O)N([C@@H](C)CO)C[C@H]1C`, the activity change, negative = cytotoxicity is 2.32% (inactive).

For the compound `CCc1ccc(/C=C2\SC(=S)N(CCCC(=O)NCCCN3CCOCC3)C2=O)cc1`, the activity change, negative = cytotoxicity was -13.1% (inactive).

On to `CCN(CC)C(=O)CN1C(=O)C(=O)c2ccccc21`, for which the activity change, negative = cytotoxicity was -11% (inactive).

On to `COc1ccc(C(C)(O)c2nc(-c3cccc(F)c3)cs2)cc1` (stereo unspecified), for which the activity change, negative = cytotoxicity was -24.1% (inactive).

`C[C@@H]1CN([C@H](C)CO)S(=O)(=O)c2ccc(C#CC3CC3)cc2O[C@@H]1CN(C)Cc1ccccc1F`: the activity change, negative = cytotoxicity is -30.1% (inactive).

On to `CCn1c(C)cc(C(=O)CN2C(=O)c3ccccc3S2(=O)=O)c1C`, for which the activity change, negative = cytotoxicity was -4.24% (inactive).

Take `Cc1ccsc1C(=O)OCC(=O)NCCC1=CCCCC1`: the activity change, negative = cytotoxicity is -24.7% (inactive).

As to `COc1ccccc1-c1cn(CC[C@H]2CC[C@@H](NC(=O)C3CCCC3)[C@@H](CO)O2)nn1`, the activity change, negative = cytotoxicity is 0.512% (inactive).

As to `Cc1ccccc1NC(=O)C(=Cc1ccc(C(=O)O)cc1)C(=O)Nc1ccccc1C`, the activity change, negative = cytotoxicity was -47.2% (inactive).

For `OCCN1CCN(C(=S)c2ccc(-c3ccccc3)cc2)CC1`, the activity change, negative = cytotoxicity is -3.37% (inactive).

With `CCCC[C@@H]1Cc2[nH][nH]c(=O)c2[C@H](c2ccc3ccccc3c2)O1`, the activity change, negative = cytotoxicity is 16.6% (inactive).

On to `COc1ccc2nc(-c3ccc(F)cc3)sc2c1`, for which the activity change, negative = cytotoxicity is -5.49% (inactive).
